In patent US20230235327A1, “A DBAIT MOLECULE IN COMBINATION WITH KRAS INHIBITOR FOR THE TREATMENT OF CANCER” (ONXEO, priority 2020, published 2023):

How the values were obtained:
Assay type in all cases: cell-based
NCI-H23 cells [1] = experiment: Selection of resistant populations, cell growth by cell counting under continuous treatment
Procedure: Cell cultures were performed with non-small cell lung (NSCLC) cancer cell line NCI-H23, a KRAS^G12C mutant cell line (heterozygous mutation). The NCI-H23 cell line was purchased from the ATCC. Cells were grown according to the supplier's instructions and maintained at 37° C. in a humidified atmosphere at 5% CO2. Medium was renewed twice a week and cells were passed when the confluence reached 70-80% depending on cell lines. Each cell line was generally kept in passage for no more than 2 months.
(§1) At least 3 to 6 independent populations were treated for each condition. Drugs were renewed twice a week to maintain a high pressure of resistance selection. Cells were harvested, washed and counted approximately ones a week after staining with 0.4% trypan blue (Sigma Aldrich, Saint-Louis, USA) using an automated cell counter (EVE™-Nanoentek).
Cells were seeded in T75 flasks with 5.10^5 cells per flask and incubated 24 hours at 37° C. before addition of AMG-510 (20 μM) with or without AsiDNA (doses ranging from 100 nM to 2500 nM). AsiDNA was added either concomitantly and continuously with the KRAS^G12C inhibitor or two weeks from the AMG-510 treatment start. At least 3 to 6 independent populations were treated for each condition. Drugs were renewed twice a week to maintain a high pressure of resistance selection. Cells were harvested, washed and counted approximately ones a week after staining with 0.4% trypan blue (Sigma Aldrich, Saint-Louis, USA) using an automated cell counter (EVE™-Nanoentek).

NCI-H23 cells [2] = experiment: βgal staining (senescence detection)
Procedure: Slow cycling/senescent drug-tolerant cells were identified using Senescence detection kit according to the manufacturer instructions (Abcam; ab65351). Briefly, cells were seeded in 12-well culture plates and incubated overnight at 37° C. Cells were then washed twice with PBS, fixed during 10 minutes with 0.5 ml of Fixative solution at room temperature, washed twice with PBS and then stained using 0.5 ml of the Staining solution mix overnight at 37° C. Cells are then analyzed under microscope for development of blue color.

NCI-H23 cells [3] = experiment: Flow cytometry of p16, p21, pPERK and transferrin receptor
Procedure: NCI-H23 were seeded in T25 flasks at 4.105 cells per flask and then treated for 24 h with AsiDNA™ at 100 nM or 5 μM for 24 hours. For intracellular staining (pPERK and CDK p16/CDK p21, mTOR, Bcl-2 staining), cells were washed, then fixed in PBS/70% Ethanol during at least 1 hour at 4° C. Cells were then washed, permeabilized with PBS/0.2% TritonX-100 solution at RT for 30 min, and saturated with PBS/2% Bovine Serum Albumin (BSA) solution at RT for 10 min. Then, cells were washed with PBS and incubated 1 hour with respectively, FITC-conjugated anti pPERK (Biorbyt, UK, 1:120), Alexa647-conjugated anti-CDK p16 (Cell signaling, Danvers Mass., USA, 1:50), Alexa488-conjugated anti-CDK p21 (Cell signaling, Danvers Mass., USA, 1:50), Alexa488-conjugated anti-mTOR (Cell signaling, Danvers Mass., USA, 1:50), Alexa647-conjugated anti-Bcl-2 (Cell signaling, Danvers Mass., USA, 1:50) before flow cytometry analysis (Guava EasyCyte 12H, Luminex, Germany). For cell-surface receptors staining with a PE-conjugated anti-transferrin receptor antibody (Thermofisher, Waltham Mass., USA, 1:20). Stained cells were then washed with PBS and fluorescence intensities were acquired with a Guava EasyCyte 12H flow cytometer (Luminex, Germany). Data were analyzed using FlowJo software (Tree Star, CA, USA), cells were harvested and washed directly after treatment end, and then incubated for 1 hour at 4° C.

MIA PaCa-2 cells = experiment: Selection of resistant populations, cell survival by cell counting; details: MIA PaCa-2, continuous 1 μM
Procedure: Cells were grown according to the supplier's instructions and maintained at 37° C. in a humidified atmosphere at 5% CO2. Medium was renewed twice a week and cells were passed when the confluence reached 70-80% depending on cell lines. Each cell line was generally kept in passage for no more than 2 months.
as §1

[4] = AMG-510 (20 μM) induced senescent cells vs parental cell line
[5] = NCI-H23 residual cells under treatment vs parental

Structure (SMILES): C=CC(=O)N1CCN(c2nc(=O)n(-c3c(C)ccnc3C(C)C)c3nc(-c4c(O)cccc4F)c(F)cc23)[C@@H](C)C1 [AMG-510]
- resistance acquired under continuous treatment (NCI-H23 cells [1]; NCI-H23, AMG-510 20 μM or MRTX-849 1 μM alone): de-novo resistance
- time from which cells restarted to divide and entered a proliferative state (NCI-H23 cells [1]; NCI-H23, continuous AMG-510 20 μM alone): two to three
- initial sensitivity of cells to the inhibitor (NCI-H23 cells [1]; NCI-H23, continuous high dose/IC90, two first weeks of treatment): very sensitive
- β-gal positive staining, cells in a senescent state (NCI-H23 cells [2]; NCI-H23, Day 17 of treatment): 50%
- β-gal positive staining, cells in a senescent state (NCI-H23 cells [2]; NCI-H23, Day 27 of treatment): 10%
- β-gal positive staining, cells in a senescent state (NCI-H23 cells [2]; NCI-H23, day 10 of treatment): 90%
- pPERK level (NCI-H23 cells [3]; [4]): increase
- transferrin receptor level (NCI-H23 cells [3]; [4]): increase
- p16 expression (NCI-H23 cells [3]; [5]): increases
- p21 expression (NCI-H23 cells [3]; [5]): increases
- time to emergence of acquired resistance after treatment start (MIA PaCa-2 cells): ~1 month
